Tested on: HEK293 cells
Experiment: Pharmacological blocking of MM 1-induced calcium responses
Type: cell-based
Conditions: MM 1 + light in calcium-free PBS
Procedure: FIGS. 14A-14J—Mechanistic study of MM-induced ICW. (a) Schematic of possible mechanisms by which calcium can enter the cytoplasm. Prepared with Biorender.com. (b) Confocal microscope images of HEK293 cells treated with MM 1, MitoTracker Green, ER Tracker Red, and CellMask Deep Red. Scale bars are both 20 μm and apply to the images in the same row. (c-h) Calcium waves elicited by MM 1-treated cells (c) in calcium-free PBS, (d) in RR (1 μM), (e) in Gd^3+ (50 μM), (f) after treatment of cells with Th (1 μM), (g) in Ry (100 μM), (h) in XeC (25 μM), (i) in U-73 (10 μM), (j) after pre-treatment of cells with Cyto D (2 μM). The solid line represents the calcium profiles averaged from six independent cells. The shaded region represents the standard error of the mean (n=6). Stimuli were presented after 30 s of imaging in each case, and the time of stimulus presentation is indicated by the vertical cyan line. […] All stimuli were delivered with a pulse width of 250 ms to a circular area of diameter 5 μm at a power ranging from 3.2×10^2 W cm^−2 to 5.1×10^2 W cm^−2. For all plots, the cyan line indicates the time of stimulus presentation. Controls and experimental groups were imaged and stimulated on the same day using the same conditions and with the same batch of cells. Error bars in the bar graphs represent the standard deviation of the mean of n=3 experiments (at least 6 stimulated cells per experiment). Statistical analyses were performed using a one-tailed Welch's t-test. * P-value<0.05, ** P-value<0.01, *** P-value<0.001, **** P-value<0.0001.
Imaging was conducted in imaging extracellular buffer (iECB; 119 mM NaCl, 5 mM KCl, 10 mM HEPES, 2 mM CaCl2, 1 mM MgCl2 (pH 7.2); 320 mOsm). Imaging in calcium-free medium was conducted in phosphate-buffered saline. Cells were prepared for imaging by seeding a 35 mm Ibidi imaging dish with ~50,000 cells in 1 mL of DMEM, and grown at 37 °C, 5% CO2 for 2 days. Prior to imaging, cells were incubated with dyes and/or molecules resuspended in complete growth medium at the appropriate concentration (MM 1 (8 μM), MM 2 (8 μM), MM 3 (24 μM), MM 4 (8 μM), Fluo-4 (2 μM)). MM and Fluo-4 were loaded into cells for 45 min. Cells treated with thapsigargin were exposed for 30 min after MM and Fluo-4 loading. Cells treated with organelle-targeting dyes were exposed for 5 min after MM loading. Ruthenium red and Gd^3+ were included in the imaging medium during stimulation and were associated with cells for 10 min prior to imaging. At the end of incubation, this medium was replaced with the iECB. Unless otherwise specified, all experiments were replicated in triplicate.
Pharmacological Experiments: In pharmacological blocking experiments, cells were loaded with MM and Fluo-4 as previously described. Typical imaging experiments in previously described extracellular buffer were then conducted as a positive control. Then, the imaging buffer was replaced, and the cells were treated as required for each experiment. After a brief recovery period, the cells were imaged again, and six different cells were stimulated. Experiments in calcium-free imaging buffer used phosphate buffered saline. Thapsigargin (Th: 1 μM) and Cytochalasin D (Cyto D; 2 μM) were incubated with cells in complete growth medium for 1 h (Th) or 2 h (Cyto D) before imaging. Ruthenium red (RR; 1 μM), gadolinium (Gd; 50 μM), ryanodine (Ry; 100 μM), xestospongin C (XeC; […]), and U-73122 (U-73; 10 μM) were administered directly into the imaging medium. Cells were incubated in the medium for ~5 min prior to imaging. Traces presented are representative results across at least six cells from single experiments, while bar graphs represent the average results across at least three distinct experiments.

CC1Cc2ccc3ccccc3c2C1=C1c2ccccc2Sc2cc(NCCN(C)C)ccc21 (stereo not shown) [MM 1]
Calcium response amplitude in absence of extracellular calcium: showed no differences in response amplitude compared to a positive control in calcium-containing medium

Source: US20260373497A1, “MOLECULAR MACHINES STIMULATE INTERCELLULAR CALCIUM WAVES AND CAUSE MUSCLE CONTRACTION” (William Marsh Rice University, priority 2022, published 2026)
